According to publication PMC9696794, “Synthesis and Antimicrobial Activity of Short Analogues of the Marine Antimicrobial Peptide Turgencin A: Effects of SAR Optimizations, Cys-Cys Cyclization and Lipopeptide Modifications” (International Journal of Molecular Sciences, 2022):
Where a SMILES comes first, the peptide text is derived from it. Bridges are numbered along the chain shown (N, C = ends). The star is where a group is joined. Lauroyl = CCCCCCCCCCCC(=O)*; Octanoyl = CCCCCCCC(=O)*

Columns and labels:
[1] = tested on: human red blood cells (RBC); assay: Haemolytic activity assay; type: cell-based; settings: for Selectivity index (SI) G- / Selectivity index (SI) G+ / Selectivity index (SI) Fungi: Table S3, highest tested concentration used where EC50 above it; for Selectivity index (SI) G-: EC50/GM of Gram-negative strains; for Selectivity index (SI) G+: EC50/GM of Gram-positive strains; for Selectivity index (SI) Fungi: EC50/GM of fungi; for SI (selectivity index = EC50/GM): haemolytic EC50 over GM of MIC against all bacterial strains, Table 1; for RBC Tox. (EC50), haemolytic activity: human RBC, 1 h, 37 °C, concentration giving 50% haemolysis
Summary of the method: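 Washed human erythrocytes (1% hematocrit final) incubated 1 h at 37 °C with agitation with lipopeptides at 500–3.9 μM in PBS (≤1% DMSO), duplicates. Haemoglobin release read at 545 nm relative to 0.1% Triton X-100; EC50 is 50% haemolysis, averaged from three experiments.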

[2] = tested on: fungi (A. pullulans, C. albicans, Rhodotorula sp.); assay: Antifungal MIC assay, all fungi together (range or geometric mean); type: cell-based; settings: Table S3; MIC >128 set to 128
Summary of the method: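 Overnight cultures in potato dextrose broth with 2% glucose at 25–30 °C were diluted to approx. 4 × 10^5 spores/mL and mixed 1:1 with two-fold peptide dilutions plated at 256 to 1 µg/mL. After 48 h at room temperature, OD600 was read. MIC was the lowest concentration giving OD below 10% of the growth control, in triplicate.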

S. aureus (ATCC 9144) = assay: Bacterial killing experiment (CFU count after MIC assay); type: cell-based, Staphylococcus aureus
Procedure: (§1) A killing experiment was performed on selected lipopeptides by using actively growing cultures of S. aureus (ATCC 9144) and E. coli (ATCC 25922). The procedure was performed as previously described. […] The number of colony-forming units (CFU) was determined after 24 h of incubation at 37 °C. The tests were performed in triplicate.

E. coli (ATCC 25922) = assay: as above; type: cell-based, Escherichia coli
Procedure: as §1

[3] = at half-MIC, compared to growth control

Structure (SMILES)	Selectivity index (SI) G- [1]	Selectivity index (SI) G+ [1]	Selectivity index (SI) Fungi [1]	SI (selectivity index = EC50/GM) [1]	RBC Tox. (EC50), haemolytic activity [1] [µg/mL]	GM of MIC Fungi [2] [µg/mL]	colony-forming units (CFU) after treatment (S. aureus (ATCC 9144); at MIC (or above), 24 h)	colony-forming units (CFU) after treatment (S. aureus (ATCC 9144); [3])	colony-forming units (CFU) after treatment (E. coli (ATCC 25922); at MIC (or above), 24 h)	colony-forming units (CFU) after treatment (E. coli (ATCC 25922); [3])
CCCCCCCCCCCC(=O)N[C@H]1CSSC[C@@H](C(=O)N[C@@H](CCCCN)C(=O)N[C@@H](CC(C)C)C(N)=O)NC(=O)[C@H](CCCCN)NC(=O)[C@H](Cc2c[nH]c3ccccc23)NC(=O)CNC(=O)CNC(=O)[C@@H]2CCCN2C(=O)[C@H](CCCCN)NC(=O)[C@H](CCCCN)NC(=O)CNC1=O [Peptide C12-cTurg-1, C12 -(CGKKPGGWKC)KL-NH2] (Lauroyl-CGKKPGGWKCKL-NH2; disulfide 1-10)	27	77	11	55	219	20	No CFU were observed	slightly less colony-forming units (CFU) were formed	No CFU were observed	slightly less colony-forming units (CFU) were formed
CCCCCCCC(=O)N[C@H]1CSSC[C@@H](C(=O)N[C@@H](CCCCN)C(=O)N[C@@H](CC(C)C)C(N)=O)NC(=O)[C@H](CCCCN)NC(=O)[C@H](Cc2c[nH]c3ccccc23)NC(=O)CNC(=O)[C@H](Cc2c[nH]c3ccccc23)NC(=O)[C@H](Cc2c[nH]c3ccccc23)NC(=O)[C@H](CCCCN)NC(=O)[C@H](CCCCN)NC(=O)CNC1=O [Peptide C8-cTurg-2, C8- (CGKKWWGWKC)KL-NH2] (Octanoyl-CGKKWWGWKCKL-NH2; disulfide 1-10)	78	155	35	123	439	13	No CFU were observed	slightly less colony-forming units (CFU) were formed	No CFU were observed	slightly less colony-forming units (CFU) were formed
